Reference: patent publication US9006238B2, “Pyrazolo pyridine derivatives as NADPH oxidase inhibitors” (Genkyotex SA, priority 2008, dated 2015)

Experiments:
NOX [1] = molecular target: T1, NOX (Homo sapiens, UniProt P04839); test: Amplex Red measurement of extracellular hydrogen peroxide (NOX activity) using DMSO-differentiated HL60 cells; format: cell-based; settings: DPI final concentration 10 μM
T1 construct: HL60 differentiation to the neutrophil phenotype was triggered by adding Me2SO; endogenous in cells; host or cells: HL-60 cells differentiated with DMSO (1.25% v/v, 6 days) to the neutrophil phenotype
T1 sequence (P04839 1-570): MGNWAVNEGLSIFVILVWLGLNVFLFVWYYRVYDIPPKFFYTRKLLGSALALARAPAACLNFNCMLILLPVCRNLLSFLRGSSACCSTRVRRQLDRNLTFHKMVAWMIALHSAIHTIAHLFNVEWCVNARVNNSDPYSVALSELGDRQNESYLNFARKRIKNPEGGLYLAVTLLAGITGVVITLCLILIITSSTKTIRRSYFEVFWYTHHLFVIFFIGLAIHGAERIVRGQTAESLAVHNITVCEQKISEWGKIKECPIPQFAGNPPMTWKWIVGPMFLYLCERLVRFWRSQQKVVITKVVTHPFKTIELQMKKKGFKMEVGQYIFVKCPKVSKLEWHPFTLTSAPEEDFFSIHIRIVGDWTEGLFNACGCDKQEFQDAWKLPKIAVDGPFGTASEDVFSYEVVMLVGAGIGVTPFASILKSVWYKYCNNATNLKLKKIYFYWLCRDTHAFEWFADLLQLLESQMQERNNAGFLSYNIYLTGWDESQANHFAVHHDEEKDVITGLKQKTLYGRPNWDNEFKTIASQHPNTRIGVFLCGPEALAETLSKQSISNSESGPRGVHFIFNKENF
T1 sequence (P13498 1-195 partner): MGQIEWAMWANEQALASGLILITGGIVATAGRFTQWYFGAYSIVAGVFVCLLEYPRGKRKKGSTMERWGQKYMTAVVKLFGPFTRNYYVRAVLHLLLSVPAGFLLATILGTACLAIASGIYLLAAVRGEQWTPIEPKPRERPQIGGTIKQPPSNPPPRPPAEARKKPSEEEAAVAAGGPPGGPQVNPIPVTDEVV
Method: (§1) The activity of the compounds according to the invention may be tested for their activity in the inhibition or reduction of formation of reactive oxygen species (ROS) from oxygen in cells. The activity of the compounds is tested in the following cell cultures by different techniques such as nitroblue tetrazolium, Amplex Red, Chemiluminescence (Luminol) and 2′,7′-dichlorodihydrofluorescein diacetate (H2DCF-DA) according to the protocols detailed below.
Human acute myeloid leukemia cell line HL-60 was cultured in RPMI 1640 (Invitrogen) supplemented with 10% heat-inactivated calf serum, 2 mM glutamine, 100 U/mL penicillin (Sigma), and 100 μg streptomycin (Sigma) at 37° C. under a humidified atmosphere of 5% CO2. HL60 differentiation to the neutrophil phenotype was triggered by adding Me2SO (final concentration 1.25% v/v for 6 days) to the culture medium.
(§2) Extracellular hydrogen peroxide was measured using Amplex UltraRed (Molecular Probes). Cells were trypsinized (1× Trypsin-EDTA), collected by centrifugation, and resuspended in HBSS supplemented with 1% glucose. Cells were seeded into black 96-well plates at a density of 50,000 cells in 200 μl testing buffer (HBSS 1% glucose containing 0.005 U/mL horseradish peroxidase (Roche) and 50 μM Amplex Red in the presence or absence of compounds according to the invention. As a control, DPI was included at a final concentration of 10 μM The plates were placed in the fluorescent Optima Fluorescent plate reader and kept at 37° C. during 20 min. Fluorescence was measured for […] with excitation and emission wavelengths of 544 nm and 590 nm respectively. NOX activities were expressed as % of the activity in control cells. Residual activity of DPI-treated cells was usually <10%.
The Table 2 below summarizes the percentage of inhibition of NOX activity as measured by Amplex Red using DMSO-differentiated HL60 cells as described above:
The Table 3 below summarizes the IC50 of NOX activity as measured by Amplex Red using DMSO-differentiated HL60 cells as described above: […]

NOX [2] = test: Chemiluminescence (luminol) measurement of ROS in cell cultures; format: cell-based, human; settings: 60 minutes at 37° C.
Method: as §1, §2
ROS was measured using the chemiluminescent probe luminol. […]

NOX [3] = test: H2DCF-DA (DCF fluorescence) measurement of ROS in HUVEC stimulated with TGF-β; format: cell-based, human; settings: TGF-β stimulation
Method: The activity of the compounds according to the invention may be tested for their activity in the inhibition or reduction of formation of reactive oxygen species (ROS) from oxygen in cells. The activity of the compounds is tested in the following cell cultures by different techniques such as nitroblue tetrazolium, Amplex Red, Chemiluminescence (Luminol) and 2′,7′-dichlorodihydrofluorescein diacetate (H2DCF-DA) according to the protocols detailed below. […]
HUVEC were plated on coverslips and made quiescent overnight in 0.5% BSA before stimulation with TGF-β. […] DCF fluorescence was visualized at an excitation wavelength of 488 nm and emission at 515 to 540 nm. […] For calculation, the absorbance at […] was normalized to absorbance at […] for each individual well. […] NOX activities were expressed as % of the activity in control cells. […]

NOX [4] = test: Nitroblue tetrazolium (NBT) test of intracellular and extracellular superoxide in cell cultures; format: cell-based, human; settings: DPI final concentration 10 μM, 2.5 h
Method: as §1
Human microglia cell line (HMC3, human microglia clone 3) (Janabi et al., 1995, Neurosci. Lett. 195:105) were cultured in MEM (Eagle's minimum essential medium) containing 10% FBS with 50 U/ml penicillin G sodium 50 μg/ml streptomycin sulfate, and incubated at 37° C. for 24 hours. IFN-γ (human IFN-γ, Roche. 11 040 596 001) was added to the culture medium for a final concentration of 10 ng/ml 24 h, before detection of O2^− formation. […]
Intracellular and extracellular superoxide was measured by a colorimetric technique using a quantitative nitroblue tetrazolium (NBT) test. SOD-inhibitable conversion of NBT to formazan, a fine blue precipitate, in the presence of superoxide anion was measured using Fluostar Optima spectrometer (BMG labtech). […] The absorption was measured at 630 nm. For calculation, the absorbance at 630 nm was normalized for each individual well. […] NOX activities were expressed as % of the activity in control cells. […]

Measured: Residual activity of DPI-treated cells (NOX activity as % of the activity in control cells)

c1ccc([I+]c2ccccc2)cc1 [DPI, Diphenyl-iodonium]
< 10%: all assays above
